The values that follow come from US20260294922A1, “Inhibitors of JUN N-Terminal Kinases (JNK1, JNK2, and/or JNK3) and Mitogen-Activated Protein Kinases (MAPK8, MAPK9, and/or MAPK10) and Methods of Using Same” (Baylor College of Medicine, priority 2023, published 2026).

The test system of one series is 480 kinases. In words: Eurofins KINOMEscan selectivity profile. It is filed as binding. The following applies: Bentamapimod and Tanzisertib at 1 μM.
Series [1] relates to primary human endometriotic stromal cells (patient 50). Kind of series: IL-1β-stimulated pro-inflammatory gene expression in primary endometriotic stromal cells, patient 50. It is filed as cell-based. The following applies: patient 50, relative to CDD-939. The source says: FIGS. 14G-14H represent responses of primary human endometriotic stromal cells [from the endometrioma lesion] from endometriosis patient “50”.
FIGS. 15A-15H provide replicate results of the response of primary human endometriotic stromal cells (derived from the lesions) obtained from endometriosis patient “50”. In each example. […] In each example, CDD-2728 inhibited IL-1β-stimulated pro-inflammatory biomarker responses in primary endometriotic stromal cell cultures. Lower concentrations of JNK inhibitors were required to reduce the proinflammatory response of IL-1β in stromal cells than the concentration of JNK-I in 12Z epithelial cells.
Another target tissue of JNK inhibitors in the treatment of endometriosis are endometriotic stromal cells. To further exemplify the relevance of the discoveries of novel JNK inhibitors for endometriosis, stromal cells obtained from the endometriotic lesions of a patient with endometriosis have been cultured. The compliant identifier for this patient is Eosis50. These cells represent stromal cells from an ovarian endometrioma. Similar to culture system described elsewhere herein, the inflammatory environment of peritoneal endometriosis was simulated by the addition of IL-1β and increasing concentrations of either bentamapimod or CDD-2728 were added to these stromal cell cultures. […]

The target of another series is T1, ERK1 (Homo sapiens, UniProt P27361).
T1 construct: purchased ThermoFisher (SelectScreen, outsourced service)
T1 sequence (P27361 whole entry): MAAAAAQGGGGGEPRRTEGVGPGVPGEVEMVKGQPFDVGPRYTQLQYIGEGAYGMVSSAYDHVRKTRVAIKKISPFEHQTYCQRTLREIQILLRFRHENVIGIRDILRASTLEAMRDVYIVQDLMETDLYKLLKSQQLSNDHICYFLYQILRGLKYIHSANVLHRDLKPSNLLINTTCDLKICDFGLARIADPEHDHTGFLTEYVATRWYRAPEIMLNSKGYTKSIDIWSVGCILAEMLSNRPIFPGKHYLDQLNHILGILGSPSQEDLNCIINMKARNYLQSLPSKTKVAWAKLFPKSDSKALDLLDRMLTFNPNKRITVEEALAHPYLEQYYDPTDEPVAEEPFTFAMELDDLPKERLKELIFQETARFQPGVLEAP
In words: ThermoFisher SelectScreen, ERK1. It is filed as binding.

Series [2] can be described thus: Plasma ALT and AST after intraperitoneal administration. It is filed as in vivo, mouse. The following applies: 24 h post-dose, individual mice 1-3.
A further series concerns HepG2 cells. Kind of series: HepG2 cell viability (ATP consumption). The following applies: CDD-2575 25 μM; CDD-2728, CDD-2624 up to 75.
Series [3] can be described thus: Pharmacokinetics after oral administration in mice. It is filed as in vivo. The settings on record: mouse, 50 mg/kg, plasma. The text has this: (§1) Based on stability and estimated half-life of compounds exposed to liver microsome in vitro, CDD-2728 was selected for PK evaluation.
The target of a further series is T2, CLK3 (Homo sapiens, UniProt P49761).
T2 construct: purchased ThermoFisher (SelectScreen, outsourced service)
T2 sequence (P49761 whole entry): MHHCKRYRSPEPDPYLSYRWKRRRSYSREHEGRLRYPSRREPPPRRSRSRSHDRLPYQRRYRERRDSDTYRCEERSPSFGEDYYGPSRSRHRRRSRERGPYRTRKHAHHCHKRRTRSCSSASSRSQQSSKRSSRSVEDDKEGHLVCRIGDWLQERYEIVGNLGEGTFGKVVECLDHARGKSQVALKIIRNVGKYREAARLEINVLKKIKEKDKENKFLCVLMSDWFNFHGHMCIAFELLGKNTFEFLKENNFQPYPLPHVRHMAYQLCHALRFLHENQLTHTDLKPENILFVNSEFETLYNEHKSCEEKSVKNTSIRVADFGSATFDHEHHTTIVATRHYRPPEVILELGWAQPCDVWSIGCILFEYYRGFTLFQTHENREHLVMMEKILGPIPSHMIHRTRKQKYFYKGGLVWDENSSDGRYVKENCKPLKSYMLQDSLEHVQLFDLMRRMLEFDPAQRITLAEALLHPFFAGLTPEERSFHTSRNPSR
In words: ThermoFisher SelectScreen, CLK3. The series is classed as binding.

The subject of another series is iHEEC. In words: Beta-catenin expression in IL-1β-treated iHEEC. Also noted: beta-catenin expression at cell contact points: dose or concentration left out as unconfirmed. It is filed as cell-based, human. As to the method:
FIGS. 29A-29C depict the impact of JNK inhibition on the cellular expression of beta-catenin located at the cell surface and throughout the cytoplasm of iHEEC, wherein HEEC cells were treated with vehicle (FIG. 29A), IL-1β (FIG. 29B), or IL-1β and […] CDD-2728 (FIG. 29C). The increased cytoplasmic and plasma membrane expression of β-catenin following exposure to IL-1β supports the role of β-catenin in facilitating epithelial-to-mesenchymal transdifferentiation. The cellular morphology is consistent with that of columnar epithelial cells. iHEEC were treated with JNK-I or vehicle for 30 min before addition of IL-1β, followed by incubation of cells for another 15 minutes. Addition of IL-1β over this short time course caused a dramatic change in the expression of beta-catenin in iHEEC endometriotic epithelial cells, and a noticeable change in phospho-JNK throughout the cytoplasm, induced by IL-1β. Beta catenin expression at contact points between cells is increased by IL-1β, and inhibited by CDD-2728.

In a further series the target is JNK1 (Homo sapiens, UniProt P45983). In words: ThermoFisher SelectScreen, JNK1. It is filed as binding.
JNK1, sequence (P45983 whole entry): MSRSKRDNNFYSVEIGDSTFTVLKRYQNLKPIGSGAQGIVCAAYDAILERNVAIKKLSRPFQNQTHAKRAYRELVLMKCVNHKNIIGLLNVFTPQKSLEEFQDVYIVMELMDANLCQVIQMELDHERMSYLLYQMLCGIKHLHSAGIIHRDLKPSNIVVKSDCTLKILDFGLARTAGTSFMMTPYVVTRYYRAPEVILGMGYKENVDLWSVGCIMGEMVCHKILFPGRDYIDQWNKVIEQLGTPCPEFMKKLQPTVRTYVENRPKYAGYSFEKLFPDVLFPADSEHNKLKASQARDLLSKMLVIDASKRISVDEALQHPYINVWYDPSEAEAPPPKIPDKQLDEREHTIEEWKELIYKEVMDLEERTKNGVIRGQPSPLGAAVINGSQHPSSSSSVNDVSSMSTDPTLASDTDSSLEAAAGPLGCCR
Series [4] in a line: Pharmacokinetics after intraperitoneal administration in mice. It is filed as in vivo. The following applies: mouse, ip, 50 mg/kg, plasma.
Excerpt: as §1

For series [5], the system named is immortalized human endometriotic epithelial cells (iHEEC). Kind of series: Phosphorylation of JNK and Jun in iHEEC. The series is classed as cell-based. The source says: FIG. 26A depicts the effects of CDD-2728 and CDD-3013 on phosphorylation of the JNK enzyme itself (i.e., representing MEK4 inhibition) and phosphorylation of pSer63 and pSer73 on the transcription factor Jun in immortalized human endometriotic epithelial cells (iHEEC). The HEEC cells are a well characterized cell line that are relevant for the evaluation of inflammatory endpoints and measures of epithelial-to-mesenchymal transitions (EMT). […] This is consistent with the potency relationships of CDD-2728 relative to bentamapimod observed in cytokine gene expression described above in iHEEC cells and primary human stromal endometriotic cells. […] SP600125 has been frequently described as a poorly-selective JNK-I but in this context provides additional confirmation of inhibition of the JNK target kinase for CDD-2728. […] This adds further support to the critical role of JNK-1 to the therapeutic effect of the JNK inhibitors of the disclosure.

In another series the test system is pSer63 and pSer73 Jun. In words: In-cell Western blot of Jun phosphorylation. The series is classed as cell-based. The following applies: 0.1, 1 and 10 μM. As to the method: The top section of the in-cell Western is pSer73 and the lower section is pSer63. Experiments were performed in triplicate for 3 concentrations (0.1 μM, 1 μM, and 10 μM) FIGS. 27B-27C: graphical summary of the in-cell Western blot is provided for pSer73 (FIG. 27B) and pSer63 (FIG. 27C).

In another series the test system is 12Z cells. Kind of series: Phosphorylation of Jun and JNK in IL-1β-treated 12Z cells. The series is classed as cell-based, human.
A short description of series [6]: Plasma ALT and AST after oral administration. The series is classed as in vivo, mouse. The settings on record: 24 h post-dose, individual mice 1-4.

“And” between values parts separate entries of the source, which are not always exact repeats. Equal values may be shown once. “Also recorded” adds a separate entry of the source.

Method for HepG2 cells: This assay reflects cell viability. […] To determine if the responses observed in endometriotic epithelial cells and endometriotic stromal cell cultures were cytotoxic, cell viability was performed in HepG2 cells.

Regarding `CNCc1ccc(NC(=O)c2ccn3ncc(-c4cnc5[nH]ccc5c4)c3c2)cc1` [CDD-2346, N-(4-((methylamino)methyl)phenyl)-3-(1H-pyrrolo[2,3-b]pyridin-5-yl)pyrazolo[1,5-a]pyridine-5-carboxamide], the “KINOMEscan selectivity / inhibition” value in the series on 480 kinases is “selectivity of CDD-2346 was inadequate”.
Consider `CN(C)C(=O)c1cc(NC(=O)c2cc3c(-c4cnc5[nH]ccc5c4)cccc3s2)ccc1O` [CDD-2728, N-(3-(dimethylcarbamoyl)-4-hydroxyphenyl)-4-(1H-pyrrolo[2,3-b]pyridin-5-yl)benzo[b]thiophene-2-carboxamide], for which the “inhibition of IL-6, IL-8, MMP-3 and PTGS2 gene expression” value in [1] is “effective inhibitor of IL-6 gene expression; also recorded: more effective inhibitor of the biomarkers IL-8, MMP-3, and PTGS2 gene expression than CDD-939; also recorded: superior efficacy and potency”. The Kd (as a rule, the equilibrium constant for the complex coming apart) at ERK1 turned out to be 909 nM; at CLK3, 1020 nM; at JNK1, 1 nM. The “inhibition of ERK1/2” value against ERK1 (ERK1/2, in words) was “only modest inhibition of ERK1/2”. Moreover, the ALT in series [2] was 87.34 IU/L and 29.17 IU/L and 23.07 IU/L; in [6] it was 43.49 IU/L and 21.92 IU/L and 36.24 IU/L and 30.94 IU/L. The AST in series [2] is 78.94 IU/L and 38.37 IU/L and 35.80 IU/L; in series [6], 69.13 IU/L and 76.02 IU/L and 61.79 IU/L and 41.64 IU/L. For the same molecule, the “effect on HepG2 cell viability / ATP consumption” value in the series on HepG2 cells was “tolerated (up to 75 μM); also recorded: neither CDD-2624 or CDD-2728 had significant effects on ATP consumption”. Also, the AUC(0-inf) (in general, total exposure, with the tail of the curve extrapolated) in [3] came to 3.03 ± 0.98 µM·h; in series [4], 8.03 ± 2.52 µM·h. Also, the figures for the AUC(0-t) in [3] and in [4] were 2.95 ± 0.95 µM·h and 5.7 ± 2.53 µM·h, respectively. The CL/F (as a rule, clearance divided by bioavailability, as obtained after extravascular dosing) in series [3] is 650 mL/min/kg; in series [4], 245 mL/min/kg. For the same molecule, the Cmax (as a rule, the highest concentration seen after dosing) in [3] was 1510 ± 530 nM; in series [4], 440 ± 190 nM. In addition, the Tmax (commonly the time at which the peak concentration occurs) in series [3] is 0.63 ± 0.25 h; in [4], 3 ± 1.15 h. The half-life in series [3] was 1.48 ± 0.32 h; in series [4] (read-out: T1/2 (converted)), 14.2 ± 8.92 h; in series [4] (read-out: half-life, injected into the peritoneal cavity (converted)), 14 h. For the same molecule, the MRT last in series [3] (read-out: MRT0-t) worked out at 1.7 ± 0.34 h; in series [4] (read-out: MRT0-t), 8.57 ± 1.33 h. The results for the MRT inf in [3] (read-out: MRT0-∞) and in [4] (read-out: MRT0-∞) were 1.91 ± 0.44 h and 20.5 ± 13 h, respectively. In the series on iHEEC (short time course, iHEEC), the “cell viability or cell density” value is recorded as “no apparent changes in cell viability or cell density”. In addition, in the series on iHEEC (with IL-1β), the “beta-catenin expression at cell contact points” value is reported as “inhibited”. Besides, the “phosphorylation of JNK1 (P46) and JNK2 (P54)” value in series [5] is “inhibits phosphorylation of JNK1 (P46) and JNK2 (P54)”. Moreover, the “phosphorylation of Jun at pSer63 and pSer73” value in [5] is listed as “more effectively than CDD-939”. Besides, the “Jun phosphorylation (pSer73, pSer63), relative to Tanzisertib” value in the series on pSer63 and pSer73 Jun is listed as “more effective inhibitors of Jun phosphorylation than Tanzisertib”. In the series on 12Z cells, the “phosphorylation of JNK1 or JNK2” value is recorded as “undetectable changes”. In addition, the “phosphorylation of Jun relative to total Jun” value in the series on 12Z cells (relative to bentamapimod) was “superior efficacy”.
